Measurements: the supplement of paper PMC12137928
Where a name gives a salt, the structure may show the parent alone.

Legend:
HCT116 [1] = experiment: efficacy (maximum % inhibition of viability vs DMSO); higher = more cytotoxic; details: 72 h
In short: (§1)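 In 1536-well plates, 250 HCT116 cells per well were seeded and left for 5 h to attach. Luminescence from CellTiter-Glo was set against vehicle (0%) and positive control (-100%), and pattern correction was applied. IC50 and maximal efficacy come from four-parameter Hill fitting.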

HCT116 [2] = details: 72 h
In short: as §1

| Structure (SMILES) | IC50 cell viability (HCT116 [2]; ICRF193 0 nM) | IC50 cell viability (HCT116 [2]; ICRF193 200 nM) | efficacy (HCT116 [1]; ICRF193 0 nM) | efficacy (HCT116 [1]; ICRF193 200 nM) |
| --- | --- | --- | --- | --- |
| Nc1nc(Cl)nc2c1ncn2[C@@H]1O[C@H](CO)[C@@H](O)[C@@H]1F [Clofarabine] | 0.146 µM | 0.231 µM | 45.9% | 65.2% |
| CC(C)(C)c1ccc(CN2CCN(C(c3ccccc3)c3ccc(Cl)cc3)CC2)cc1 (stereo not drawn) [Buclizine HCl] | 20.6 µM | 20.6 µM | 42.9% | 59% |
| CC(C)NCC(O)COc1ccc(CCOCC2CC2)cc1 (stereo not drawn) [Betaxolol HCl] | > 45.8 µM | 5.17 µM | – | 76.2% |
| Cc1ccc(Nc2nccc(N(C)c3ccc4c(C)n(C)nc4c3)n2)cc1S(N)(=O)=O [Pazopanib] | 18.3 µM | > 45.8 µM | 56.3% | – |
| C=C1C[C@H]2[C@@H]3C=C(C)C4=CC(=O)CC[C@]4(C)[C@H]3CC[C@]2(C)[C@@]1(OC(C)=O)C(C)=O [Melengestrol acetate] | > 45.8 µM | 18.3 µM | – | 40.9% |
| Cc1ccc(-c2cc(C(F)(F)F)nn2-c2ccc(S(N)(=O)=O)cc2)cc1 [Celecoxib] | 18.3 µM | 18.3 µM | 47.1% | 58.1% |
| Clc1cc(Cl)c(OCC#CI)cc1Cl [Haloprogin] | 25.9 µM | 20.6 µM | 89.7% | 93.8% |
| O=C1CCc2cc(OCCCCc3nnnn3C3CCCCC3)ccc2N1 [Cilostazol] | > 45.8 µM | 23.1 µM | – | 46% |
| CC/C(=C(\c1ccccc1)c1ccc(OCCN(C)C)cc1)c1ccccc1 [Tamoxifen] | 23.1 µM | 18.3 µM | 101% | 93% |
| NCCCC[C@H](NC(=O)[C@@H]1CCCN1C(=O)[C@@H]1CSSC[C@H](N)C(=O)N[C@@H](Cc2ccc(O)cc2)C(=O)N[C@@H](Cc2ccccc2)C(=O)N[C@@H](CCC(N)=O)C(=O)N[C@@H](CC(N)=O)C(=O)N1)C(=O)NCC(N)=O [Lypressin] | > 45.8 µM | 29.1 µM | – | 51.6% |
| CC(C)C[C@H]1C(=O)N2CCC[C@H]2[C@]2(O)O[C@](NC(=O)[C@@H]3C=C4c5cccc6[nH]c(Br)c(c56)C[C@H]4N(C)C3)(C(C)C)C(=O)N12 [BROMOCRIPTINE] | > 45.8 µM | 18.3 µM | – | 43.2% |
| Oc1ccc(Cl)cc1Cc1cc(Cl)ccc1O [Dichlorophen] | 10.3 µM | 8.2 µM | 106% | 99.9% |
| C=CCNc1c(O)cc2c(O)c1C[C@@H](C)C[C@H](OC)[C@H](O)[C@@H](C)/C=C(\C)[C@H](OC(N)=O)[C@@H](OC)/C=C\C=C(/C)C(=O)N2 [Retaspimycin (Hydrochloride)] | 1.16 µM | 0.291 µM | 80.4% | 79.8% |
| CCOC(=O)C1=C(C)NC(C)=C(C(=O)OC)C1c1cccc(Cl)c1Cl (stereo not drawn) [Felodipine] | 18.3 µM | 18.3 µM | 47.4% | 52% |
| Oc1c(Cl)cc(Cl)c2cccnc12 [Chloroxine] | 29.1 µM | 29.1 µM | 103% | 112% |
| CO[C@H]1/C=C/O[C@@]2(C)Oc3c(C)c(O)c4c(O)c(c(/C=N/N5CCN(C)CC5)c(O)c4c3C2=O)NC(=O)/C(C)=C\C=C\[C@H](C)[C@H](O)[C@@H](C)[C@@H](O)[C@@H](C)[C@H](OC(C)=O)[C@@H]1C [Rifampicin] | 29.1 µM | 29.1 µM | 44.2% | 44.1% |
| O=c1ccc2ccc(OCCCCN3CCN(c4cccc5sccc45)CC3)cc2[nH]1 [Brexpiprazole] | 18.3 µM | 20.6 µM | 102% | 106% |
| CC(C)c1nc(CN(C)C(=O)N[C@@H](CCN2CCOCC2)C(=O)N[C@H](CC[C@H](Cc2ccccc2)NC(=O)OCc2cncs2)Cc2ccccc2)cs1 [Cobicistat] | 14.6 µM | > 45.8 µM | 40.1% | – |
| CCCCN(CCCC)CCC(O)c1cc2c(Cl)cc(Cl)cc2c2cc(C(F)(F)F)ccc12 (stereo not drawn) [Halofantrine] | 23.1 µM | 20.6 µM | 66.9% | 87.4% |
| O=[N+]([O-])c1ccc(Oc2ccc(N=C=S)cc2)cc1 [Nitroscanate] | 29.1 µM | 29.1 µM | 82.7% | 85.5% |
| O=C(O)c1c(Cl)c(Cl)c(Cl)c(Cl)c1-c1c2cc(I)c(=O)c(I)c-2oc2c(I)c(O)c(I)cc12 [Rose Bengal disodium] | 16.4 µM | 11.6 µM | 74.2% | 62.4% |
| Oc1cc(Cl)ccc1Oc1ccc(Cl)cc1Cl [Triclosan] | 16.4 µM | 18.3 µM | 92.5% | 95.2% |
| COc1ccc(-n2nc(CCC(=O)N(C)O)cc2-c2ccc(Cl)cc2)cc1 [Tepoxalin] | 16.4 µM | 16.4 µM | 93.4% | 88.3% |
| N#Cc1c(N2C[C@@H]3NCCO[C@H]3C2)c(F)cc2c(=O)c(C(=O)O)cn(C3CC3)c12 [Finafloxacin] | > 45.8 µM | 18.3 µM | – | 72.2% |

More lines, main results first:

| IC50 cell viability (HCT116 [2]; ICRF193 0 nM) | IC50 cell viability (HCT116 [2]; ICRF193 200 nM) | Structure (SMILES) | efficacy (HCT116 [1]; ICRF193 0 nM) | efficacy (HCT116 [1]; ICRF193 200 nM) |
| --- | --- | --- | --- | --- |
| 23.1 µM | 9.2 µM | CC(C)(C)c1nc(-c2cccc(NS(=O)(=O)c3c(F)cccc3F)c2F)c(-c2ccnc(N)n2)s1 [Dabrafenib] | 46.2% | 81.6% |
| > 45.8 µM | 29.1 µM | O=C1c2ccccc2C(=O)c2c1ccc(O)c2O [Alizarin] | – | 47.6% |
| 25.9 µM | 20.6 µM | CN1CCN(CCCN2c3ccccc3Sc3ccc(Cl)cc32)CC1 [Prochlorperazine dimaleate] | 89.6% | 81.1% |
| 0.73 µM | > 45.8 µM | CC[C@]12C=CCN3CC[C@@]4(c5cc([C@@]6(C(=O)OC)C[C@@H]7C[C@@H](C(C)(F)F)CN(Cc8c6[nH]c6ccccc86)C7)c(OC)cc5N(C)[C@H]4[C@@](O)(C(=O)OC)[C@@H]1OC(C)=O)[C@@H]32 [Vinflunine (Tartrate)] | 60.1% | – |
| 20.6 µM | 20.6 µM | COc1cc(NS(C)(=O)=O)ccc1Nc1c2ccccc2nc2ccccc12 [Amsacrine] | 141% | 128% |
| > 45.8 µM | 29.1 µM | Cc1ccc(C(=O)c2cc(O)c(O)c([N+](=O)[O-])c2)cc1 [Tolcapone] | – | 84.9% |
| 11.6 µM | 9.2 µM | O=C1CCc2ccc(OCCCCN3CCN(c4cccc(Cl)c4Cl)CC3)cc2N1 [Aripiprazole] | 52.1% | 59.1% |
| 1.83 µM | 2.59 µM | COc1c(C)c2c(c(O)c1C/C=C(\C)CCC(=O)O)C(=O)OC2 [Mycophenolic acid] | 70.7% | 92.4% |
| > 45.8 µM | 3.66 µM | CN(C)C(=S)SC(=S)N(C)C [Tetramethylthiuram monosulfide] | – | 40.7% |
| 22.4 µM | 35.5 µM | CC(CN1c2ccccc2Sc2ccc(S(=O)(=O)N(C)C)cc21)N(C)C (stereo not drawn) [Fonazine] | 56% | 70.3% |
| 1.64 µM | 0.73 µM | C[C@H]1[C@H](OC(=O)CCC(=O)O)O[C@@H]2O[C@@]3(C)CC[C@H]4[C@H](C)CC[C@@H]1[C@@]24OO3 [ARTESUNATE] | 93.1% | 86.8% |
| 1.03 µM | 0.92 µM | COCc1c(C(C)C)nc(C(C)C)c(/C=C/[C@@H](O)C[C@@H](O)CC(=O)O)c1-c1ccc(F)cc1 [Cerivastatin sodium] | 106% | 102% |
| > 45.8 µM | 29.1 µM | CCCCC(=O)O [Valeric acid] | – | 62% |
| 18.3 µM | 20.6 µM | COCCOC(=O)C1=C(C)NC(C)=C(C(=O)OC/C=C/c2ccccc2)C1c1cccc([N+](=O)[O-])c1 (stereo not drawn) [Cilnidipine] | 82.3% | 103% |
| 20.6 µM | 13 µM | Cc1oncc1C(=O)Nc1ccc(C(F)(F)F)cc1 [Leflunomide] | 57.6% | 55.8% |
| 11.6 µM | 9.2 µM | CCCCC1C(=O)N(c2ccccc2)N(c2ccc(O)cc2)C1=O (stereo not drawn) [Oxyphenbutazone] | 103% | 55.1% |
| 23.1 µM | 20.6 µM | C[C@H]1C[C@H]2[C@@H]3CCC4=CC(=O)C=C[C@]4(C)[C@@]3(Cl)[C@@H](O)C[C@]2(C)[C@@]1(O)C(=O)CO [Beclomethasone] | 84.6% | 86.6% |
| 29.1 µM | 20.6 µM | CCSc1ccc2c(c1)N(CCCN1CCN(C)CC1)c1ccccc1S2 [Thiethylperazine dimalate] | 102% | 101% |
| 20.6 µM | 29.1 µM | CCOc1nc2cccc(C(=O)OC(C)OC(=O)OC3CCCCC3)c2n1Cc1ccc(-c2ccccc2-c2nn[nH]n2)cc1 (stereo not drawn) [Candesartan cilexetil (Atacand)] | 93% | 100% |
| > 45.8 µM | 29.1 µM | O=C1[C@@H]2[C@H]3CC[C@H](C3)[C@@H]2C(=O)N1C[C@@H]1CCCC[C@H]1CN1CCN(c2nsc3ccccc23)CC1 [Lurasidone (Hydrochloride)] | – | 46.3% |
| 29.1 µM | 29.1 µM | CC(C)C(=O)OCc1cccc(OC(=O)[C@@H]2N3C(=O)[C@@H](NC(=O)Cc4ccccc4)[C@H]3SC2(C)C)c1 [Tobicillin] | 122% | 103% |
| 20.6 µM | 18.3 µM | Clc1ccc(C(Cn2ccnc2)OCc2ccsc2Cl)c(Cl)c1 (stereo not drawn) [Tioconazole] | 102% | 91.7% |
| 13 µM | 23.1 µM | CC(C)OC(=O)Nc1ccc2[nH]c(-c3cscn3)nc2c1 [Cambendazole] | 63% | 97.2% |
| 29.1 µM | 20.6 µM | COC1=CC(=O)C[C@@H](C)[C@]12Oc1c(Cl)c(OC)cc(OC)c1C2=O [Griseofulvin] | 66.1% | 65% |
| 29.1 µM | 18.3 µM | Cc1cnc(C(=O)N[C@H]2CCCCC/C=C\[C@@H]3C[C@@]3(C(=O)NS(=O)(=O)C3CC3)NC(=O)[C@@H]3C[C@@H](Oc4nc5ccccc5c5ccccc45)CN3C2=O)cn1 [ABT-450] | 110% | 100% |
| > 45.8 µM | 14.6 µM | C#Cc1cccc(Nc2ncnc3cc(OCCOC)c(OCCOC)cc23)c1 [Erlotinib] | – | 50.4% |
| 11.6 µM | 20.6 µM | Cc1ccc(NC(=O)c2ccc(CN3CCN(C)CC3)cc2)cc1Nc1nc(-c2cccnc2)cs1 [Masitinib] | 43.6% | 66.8% |
| 2.59 µM | 3.26 µM | S=c1nc[nH]c2nc[nH]c12 [6-mercaptopurine] | 91.6% | 83.2% |
